From patent publication US10070645B2, “N-cycloalkyl-N-{[2-(1-substitutedcycloalkyl)phenyl]methylene}-(thio)carboxamide derivatives” (BAYER CROPSCIENCE AKTIENGESELLSCHAFT, priority 2013, dated 2018)

Tested on: not listed separately
Experiment: log P by HPLC on a reversed-phase column (C 18), EEC Directive 79/831 Annex V.A8
Format: physicochemical
Settings: HPLC on reversed-phase column (C 18), 40° C., 0.1% aqueous formic acid and acetonitrile, linear gradient 10% to 90% acetonitrile
Procedure, shortened: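 Reversed-phase C18 HPLC at 40° C, 0.1% aqueous formic acid/acetonitrile gradient from 10% to 90% acetonitrile. log P derived from retention times by linear interpolation between unbranched alkan-2-ones (3–16 carbons) of known log P.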

Row | logP | Compound
1 | 4.78 | Cc1ccc(C2(C)CC2(Cl)Cl)c(CN(C(=O)c2c(C(F)F)nn(C)c2Cl)C2CC2)c1Cl (racemic) [I.177]
2 | 5.59 | CC(C)CC1(c2cc(Cl)ccc2CN(C(=O)c2c(C(F)F)nn(C)c2Cl)C2CC2)CC1 [I.158]
3 | 4.39 | Cn1nc(C(F)F)c(C(=O)N(Cc2cc(Cl)ccc2C2(C)CC2(Cl)Cl)C2CC2)c1F (racemic) [I.168]
4 | 3.83 | Cn1nc(C(F)F)c(C(=O)N(Cc2cc(F)ccc2C2(C(F)(F)F)CC2)C2CC2)c1F [I.165]
5 | 4.73 | Cn1nc(C(F)F)c(C(=O)N(Cc2cc(Cl)c(Cl)cc2C2(C)CC2)C2CC2)c1F [I.180]

Same assay, conditions: HPLC, reversed-phase column (C 18), 40° C., 0.1% aqueous formic acid and acetonitrile, linear gradient 10% to 90% acetonitrile

Row | logP | Compound
6 | 4.16 | Cn1nc(C(F)F)c(C(=O)N(Cc2cc(F)c(F)cc2C2(C)CC2)C2CC2)c1Cl [I.049]
7 | 3.92 | Cn1nc(C(F)F)c(C(=O)N(Cc2cc(Br)ccc2C2(C(F)F)CC2)C2CC2)c1Cl [I.147]
8 | 3.99 | Cn1nc(C(F)F)c(C(=O)N(Cc2cccc(F)c2C2(C)CC2)C2CC2)c1Cl [I.009]
9 | 4.36 | Cn1nc(C(F)F)c(C(=O)N(Cc2cc(Br)ccc2C2(C)CC2)C2CC2)c1F [I.058]
10 | 4.34 | COc1ccc(CN(C(=S)c2c(C(F)F)nn(C)c2F)C2CC2)c(C2(C)CC2)c1 [I.030]
11 | 4.73 | C=C(C)c1ccc(CN(C(=O)c2c(C(F)F)nn(C)c2F)C2CC2)c(C2(C)CC2)c1 [I.043]
12 | 3.53 | Cn1nc(C(F)F)c(C(=O)N(Cc2ccc3c(c2C2(C)CC2)OCO3)C2CC2)c1F [I.016]
13 | 4.77 | CCC1(c2ccc(Cl)cc2CN(C(=O)c2c(C(F)F)nn(C)c2Cl)C2CC2)CC1 [I.111]
14 | 5.78 | Cn1nc(C(F)F)c(C(=O)N(Cc2cccc(C3=CC4CCC3C4)c2C2(C)CC2)C2CC2)c1F (centres unmarked) [I.013]
15 | 3.42 | COC1(c2ccccc2CN(C(=O)c2c(C(F)F)nn(C)c2Cl)C2CC2)CC1 [I.117]
16 | 3.69 | COc1ccc(CN(C(=O)c2c(C(F)F)nn(C)c2F)C2CC2)c(C2(C)CC2)c1 [I.028]
17 | 4.19 | CCC1(c2cccc(F)c2CN(C(=O)c2c(C(F)F)nn(C)c2F)C2CC2)CC1 [I.114]
18 | 4.46 | Cn1nc(C(F)F)c(C(=O)N(Cc2c(C(F)(F)F)cccc2C2(C)CC2)C2CC2)c1F [I.088]
19 | 3.92 | Cn1nc(C(F)F)c(C(=O)N(Cc2ccc(F)cc2C2(C)CC2)C2CC2)c1F [I.021]
20 | 3.64 | Cc1ccc(C2(C(F)F)CC2)c(CN(C(=O)c2c(C(F)F)nn(C)c2F)C2CC2)c1 [I.153]
21 | 4.59 | CCC1(c2cc(C)ccc2CN(C(=O)c2c(C(F)F)nn(C)c2F)C2CC2)CC1 [I.104]
22 | 4.56 | Cn1nc(C(F)F)c(C(=O)N(Cc2cc(C3CC3)ccc2C2(C)CC2)C2CC2)c1F [I.064]

Row | logP | Compound
23 | 3.89 | Cn1nc(C(F)F)c(C(=O)N(Cc2cccc(F)c2C2(C)CC2)C2CC2)c1F [I.008]
24 | 4.09 | COc1cc(CN(C(=S)c2c(C(F)F)nn(C)c2Cl)C2CC2)c(C2(C)CC2)cc1OC [I.056]
25 | 4.67 | CCC1(c2cc(Cl)ccc2CN(C(=O)c2c(C(F)F)nn(C)c2F)C2CC2)CC1 [I.102]
26 | 3.46 | Cn1nc(C(F)F)c(C(=O)N(Cc2ccccc2C2(C(F)F)CC2)C2CC2)c1Cl [I.143]
27 | 4.43 | Cn1nc(C(F)F)c(C(=O)N(Cc2ccc(Cl)cc2C2(C)CC2)C2CC2)c1F [I.018]
28 | 4.21 | Cc1ccc(C2(C)CC2)c(CN(C(=O)c2c(C(F)F)nn(C)c2F)C2CC2)c1F [I.087]
29 | 3.68 | C#CC1(c2ccc(C)cc2CN(C(=O)c2c(C(F)F)nn(C)c2F)C2CC2)CC1 [I.092]
30 | 4.64 | Cn1nc(C(F)F)c(C(=S)N(Cc2cccc(F)c2C2(C)CC2)C2CC2)c1Cl [I.011]
31 | 2.00 | Cn1nc(C(F)F)c(C(=O)N(Cc2ccc(-c3ccncc3)cc2C2(C)CC2)C2CC2)c1F [I.045]
32 | 3.74 | COC1(c2ccc(C)cc2CN(C(=O)c2c(C(F)F)nn(C)c2Cl)C2CC2)CC1 [I.123]
33 | 4.90 | CC(C)c1ccc(CN(C(=O)c2c(C(F)F)nn(C)c2F)C2CC2)c(C2(C)CC2)c1 [I.025]
34 | 5.03 | Cn1nc(C(F)F)c(C(=S)N(Cc2cc(Cl)ccc2C2(C)CC2)C2CC2)c1Cl [I.063]
35 | 3.57 | COC1(c2ccc(C)cc2CN(C(=O)c2c(C(F)F)nn(C)c2F)C2CC2)CC1 [I.122]
36 | 4.85 | CCC1(c2ccccc2CN(C(=S)c2c(C(F)F)nn(C)c2F)C2CC2)CC1 [I.098]
37 | 4.82 | Cn1nc(C(F)F)c(C(=S)N(Cc2cc(Cl)ccc2C2(C)CC2)C2CC2)c1F [I.062]
38 | 4.36 | Cc1ccc(C2(C)CC2)c(CN(C(=O)c2c(C(F)F)nn(C)c2Cl)C2CC2)c1 [I.072]
39 | 4.44 | Cn1nc(C(F)F)c(C(=O)N(Cc2cccc(Cl)c2C2(C)CC2)C2CC2)c1Cl [I.006]

Same assay, conditions: Table 3 (amines of formula II); HPLC C 18, 40° C., 0.1% aqueous formic acid and acetonitrile

Row | logP | Compound
40 | 1.08 | Fc1ccc(C2(C(F)F)CC2)c(CNC2CC2)c1 [II.39, N-{2-[1-(difluoromethyl)cyclopropyl]-5-fluorobenzyl}cyclopropanamine]

Same assay, conditions: Table 4 (aldehydes of formula IV); HPLC C 18, 40° C., 0.1% aqueous formic acid and acetonitrile

Row | Compound | logP
41 | 1-(2-formyl-4-methylphenyl)cyclopropanecarbonitrile [IV.16] | 2.08

Same assay, conditions: reversed-phase HPLC column (C 18); Table 3 (amines of formula II); HPLC C 18, 40° C., 0.1% aqueous formic acid and acetonitrile

Row | chromatographic logP | Compound
42 | 0.92 | FC(F)C1(c2ccccc2CNC2CC2)CC1 [II.36, N-{2-[1-(difluoromethyl)cyclopropyl]benzyl}cyclopropanamine]
43 | 1.43 | Cc1ccc(CNC2CC2)c(C2(C)CC2)c1 [II.05, N-[4-methyl-2-(1-methylcyclopropyl)benzyl]cyclopropanamine]
44 | 1.32 | Fc1ccc(C2(C(F)(F)F)CC2)c(CNC2CC2)c1 [II.46, N-{5-fluoro-2-[1-(trifluoromethyl)cyclopropyl]benzyl}cyclopropanamine]
45 | 1.95 | CCC1(c2cc(C(F)(F)F)ccc2CNC2CC2)CC1 [II.24, N-[2-(1-ethylcyclopropyl)-4-(trifluoromethyl)benzyl]cyclopropanamine]
46 | 1.65 | CCC1(c2cc(Cl)ccc2CNC2CC2)CC1 [II.25, N-[4-chloro-2-(1-ethylcyclopropyl)benzyl]cyclopropanamine]
47 | 1.69 | CCC1(c2cc(C)c(F)cc2CNC2CC2)CC1 [II.27, N-[2-(1-ethylcyclopropyl)-5-fluoro-4-methylbenzyl]cyclopropanamine]
48 | 1.47 | CCC1(c2cc(C)ccc2CNC2CC2)CC1 [II.26, N-[2-(1-ethylcyclopropyl)-4-methylbenzyl]cyclopropanamine]
49 | 1.37 | CC1(c2ccc(F)cc2CNC2CC2)CC1 [II.11, N-[5-fluoro-2-(1-methylcyclopropyl)benzyl]cyclopropanamine]
50 | 1.45 | Cc1ccc(C2(C)CC2)c(CNC2(C)CC2)c1 [II.13, 1-methyl-N-[5-methyl-2-(1-methylcyclopropyl)benzyl]cyclopropanamine]
51 | 1.1 | CC1(c2ccccc2CNC2CC2)CC1 [II.01, N-[2-(1-methylcyclopropyl)benzyl]cyclopropanamine]
52 | 1.38 | Cc1ccc(C2(C)CC2)c(CNC2CC2)c1 [II.12, N-[5-methyl-2-(1-methylcyclopropyl)benzyl]cyclopropanamine]
53 | 1.19 | Cc1ccc(C2(C#N)CC2)c(CNC2CC2)c1 [II.21, 1-{2-[(cyclopropylamino)methyl]-4-methylphenyl}cyclopropanecarbonitrile]

Same assay, conditions: reversed-phase HPLC column (C 18); Table 4 (aldehydes of formula IV); HPLC C 18, 40° C., 0.1% aqueous formic acid and acetonitrile

Row | chromatographic logP | Compound
54 | 3.01 | Cc1ccc(C2(C(F)F)CC2)c(C=O)c1 [IV.21, 2-[1-(difluoromethyl)cyclopropyl]-5-methylbenzaldehyde]
55 | 2.92 | COc1ccc(C=O)c(C2(C)CC2)c1 [IV.05, 4-methoxy-2-(1-methylcyclopropyl)benzaldehyde]
56 | 3.85 | Cc1cc(C=O)c(C2(C)CC2)cc1C [IV.07, 4,5-dimethyl-2-(1-methylcyclopropyl)benzaldehyde]
57 | 1.91 | O=Cc1cc(Cl)ccc1C1(C(=O)O)CC1 [IV.24, 1-(4-chloro-2-formylphenyl)cyclopropanecarboxylic acid]

Same assay, conditions: reversed-phase HPLC column (C 18); Table 5 (formula V); HPLC C 18, 40° C., 0.1% aqueous formic acid and acetonitrile

Row | chromatographic logP | Compound
58 | 4.86 | CC1(c2c(Cl)cccc2CBr)CC1 [V.01, 1-(bromomethyl)-3-chloro-2-(1-methylcyclopropyl)benzene]

Same assay, conditions: reversed-phase HPLC column (C 18); preparation examples

Row | chromatographic logP | Compound
59 | 1.08 | Fc1ccc(C2(C(F)F)CC2)c(CNC2CC2)c1 [II.39, N-{2-[1-(difluoromethyl)cyclopropyl]-5-fluorobenzyl}cyclopropanamine]

Tested on: Uromyces appendiculatus
Experiment: In vivo preventive test on Uromyces appendiculatus (bean rust)
Settings: Table B1, dose 10 ppm
Procedure: In Vivo Preventive Test on Uromyces appendiculatus (Bean Rust)
Solvent: 5% by volume of Dimethyl sulfoxide • 10% by volume of Acetone
Emulsifier: 1 μL of Tween® 80 per mg of active ingredient
The active ingredients are made soluble and homogenized in a mixture of Dimethyl sulfoxide/Acetone/Tween® 80 and then diluted in water to the desired concentration.
The young plants of bean are treated by spraying the active ingredient prepared as described above. Control plants are treated only with an aqueous solution of Acetone/Dimethyl sulfoxide/Tween® 80.
After 24 hours, the plants are contaminated by spraying the leaves with an aqueous suspension of Uromyces appendiculatus spores. The contaminated bean plants are incubated for 24 hours at 20° C. and at 100% relative humidity and then for 10 days at 20° C. and at 70-80% relative humidity.
The test is evaluated 11 days after the inoculation. 0% means an efficacy which corresponds to that of the control plants while an efficacy of 100% means that no disease is observed.

Row | Compound | Efficacy
60 | Cn1nc(C(F)F)c(C(=O)N(Cc2c(C3CC3)ccc(F)c2F)C2CC2)c1F [54 from WO-2010/130767, N-cyclopropyl-N-(6-cyclopropyl-2,3-difluorobenzyl)-3-(difluoromethyl)-5-fluoro-1-methyl-1H-pyrazole-4-carboxamide, reference compound] | 29%

Same assay, conditions: Table B1, dose 100 ppm

Row | Compound | Efficacy
61 | Cn1nc(C(F)F)c(C(=O)N(Cc2c(C3CC3)ccc(F)c2F)C2CC2)c1F [54 from WO-2010/130767, N-cyclopropyl-N-(6-cyclopropyl-2,3-difluorobenzyl)-3-(difluoromethyl)-5-fluoro-1-methyl-1H-pyrazole-4-carboxamide, reference compound] | 100%

Same assay, conditions: dose of 100 and 10 ppm of active ingredient

Row | Compound | protection
62 | Cn1nc(C(F)F)c(C(=O)N(Cc2c(C3CC3)ccc(F)c2F)C2CC2)c1F [54 from WO-2010/130767, N-cyclopropyl-N-(6-cyclopropyl-2,3-difluorobenzyl)-3-(difluoromethyl)-5-fluoro-1-methyl-1H-pyrazole-4-carboxamide, reference compound] | total to poor (less than 30%) protection
